Results: PubChem BioAssay (NCI)
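Briefly, cells in 96-well plates were exposed to five compound concentrations for 48 h, and endpoints were estimated by linear interpolation. At the TGI there is no net growth.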

What was measured:
Test in all cases: NCI anticancer screen, dose series, 48 h
[1] = tested on: SN12C renal
[2] = tested on: MDA-N
[3] = tested on: IGROV1 ovarian
[4] = tested on: EKVX NSCLC
[5] = tested on: NCI-H226 lung
[6] = tested on: BT-549 breast
[7] = tested on: HOP-92 NSCLC
[8] = tested on: HT29 colon
[9] = tested on: OVCAR-8 ovarian
[10] = tested on: SNB-75 CNS
[11] = tested on: DU-145 prostate
[12] = tested on: KM12 colon
[13] = tested on: OVCAR-4 ovarian
[14] = tested on: T-47D breast
[15] = tested on: M14 melanoma
[16] = tested on: ACHN renal
[17] = tested on: SF-268 CNS
[18] = tested on: SK-MEL-2 melanoma
[19] = tested on: MALME-3M melanoma
[20] = tested on: CAKI-1 renal
[21] = tested on: HCT-15 colon
[22] = tested on: TK-10 renal
[23] = tested on: SK-OV-3 ovarian
[24] = tested on: K-562 leukemia
[25] = tested on: PC-3 prostate
[26] = tested on: SK-MEL-5 melanoma
[27] = tested on: SK-MEL-28 melanoma
[28] = tested on: NCI-H522 lung
[29] = tested on: CCRF-CEM leukemia
[30] = tested on: 786-0 renal
[31] = tested on: MOLT-4 leukemia
[32] = tested on: UACC-257 melanoma
[33] = tested on: HCT-116 colon
[34] = tested on: RPMI-8226 leukemia
[35] = tested on: SW-620 colon
[36] = tested on: NCI/ADR-RES ovarian
[37] = tested on: UACC-62 melanoma
[38] = tested on: UO-31 renal
[39] = tested on: NCI-H460 lung
[40] = tested on: OVCAR-3 ovarian
[41] = tested on: HOP-62 NSCLC
[42] = tested on: OVCAR-5 ovarian
[43] = tested on: LOX IMVI melanoma
[44] = tested on: COLO 205 colon
[45] = tested on: SF-295 CNS
[46] = tested on: MCF7 breast
[47] = tested on: HS 578T breast
[48] = tested on: SNB-19 CNS
[49] = tested on: A549 NSCLC
[50] = tested on: HL-60(TB) leukemia
[51] = tested on: A498 renal
[52] = tested on: MDA-MB-231 breast
[53] = tested on: SR leukemia
[54] = tested on: RXF 393 renal
[55] = tested on: NCI-H23 lung
[56] = tested on: SF-539 CNS
[57] = tested on: U251 CNS
[58] = tested on: HCC-2998 colon
[59] = tested on: MDA-MB-435

## COC1(CCO)CC=CCC1(CCO)OC (stereo not drawn)
[1]
  TGI: > 100 µM
[2]
  TGI: > 100 µM
[3]
  TGI: > 100 µM
[4]
  TGI: > 100 µM
[5]
  TGI: > 100 µM
[6]
  TGI: > 100 µM
[7]
  TGI: > 100 µM
[8]
  TGI: > 100 µM
[9]
  TGI: > 100 µM
[10]
  TGI: > 100 µM
[11]
  TGI: > 100 µM
[12]
  TGI: > 100 µM
[13]
  TGI: > 100 µM
[14]
  TGI: > 100 µM
[15]
  TGI: > 100 µM
[16]
  TGI: > 100 µM
[17]
  TGI: > 100 µM
[18]
  TGI: > 100 µM
[19]
  TGI: > 100 µM
[20]
  TGI: > 100 µM
[21]
  TGI: > 100 µM
[22]
  TGI: > 100 µM
[23]
  TGI: > 100 µM
[24]
  TGI: > 100 µM
[25]
  TGI: > 100 µM
[26]
  TGI: > 100 µM
[27]
  TGI: > 100 µM
[28]
  TGI: > 100 µM
[29]
  TGI: > 100 µM
[30]
  TGI: > 100 µM
[31]
  TGI: > 100 µM
[32]
  TGI: > 100 µM
[33]
  TGI: > 100 µM
[34]
  TGI: > 100 µM
[35]
  TGI: > 100 µM
[36]
  TGI: > 100 µM
[37]
  TGI: > 100 µM
[38]
  TGI: > 100 µM
[39]
  TGI: > 100 µM
[40]
  TGI: > 100 µM
[41]
  TGI: > 100 µM
[42]
  TGI: > 100 µM
[43]
  TGI: > 100 µM
[44]
  TGI: > 100 µM
[45]
  TGI: > 100 µM
[46]
  TGI: > 100 µM
[47]
  TGI: > 100 µM
[48]
  TGI: > 100 µM
[49]
  TGI: > 100 µM
[50]
  TGI: > 100 µM

## CN(Cc1cnc2nc(N)nc(N)c2n1)c1ccc(C(=O)NC2CCCCC2)cc1
[1]
  TGI: > 100 µM
[2]
  TGI: > 100 µM
[3]
  TGI: 45.6 µM
[4]
  TGI: > 100 µM
[5]
  TGI: 80.4 µM
[6]
  TGI: > 100 µM
[8]
  TGI: 31 µM
[9]
  TGI: > 100 µM
[10]
  TGI: 65.4 µM
[11]
  TGI: > 100 µM
[51]
  TGI: 77.3 µM
[12]
  TGI: 83.2 µM
[52]
  TGI: > 100 µM
[53]
  TGI: > 100 µM
[14]
  TGI: > 100 µM
[15]
  TGI: 29 µM
[16]
  TGI: 47.8 µM
[17]
  TGI: > 100 µM
[18]
  TGI: > 100 µM
[19]
  TGI: > 100 µM
[20]
  TGI: > 100 µM
[21]
  TGI: > 100 µM
[22]
  TGI: > 100 µM
[23]
  TGI: > 100 µM
[24]
  TGI: > 100 µM
[25]
  TGI: 46 µM
[26]
  TGI: 38.1 µM
[29]
  TGI: > 100 µM
[54]
  TGI: > 100 µM
[30]
  TGI: > 100 µM
[31]
  TGI: > 100 µM
[32]
  TGI: > 100 µM
[33]
  TGI: > 100 µM
[34]
  TGI: > 100 µM
[35]
  TGI: > 100 µM
[55]
  TGI: > 100 µM
[36]
  TGI: > 100 µM
[56]
  TGI: 29.7 µM
[37]
  TGI: 32 µM
[57]
  TGI: 32.5 µM
[38]
  TGI: > 100 µM
[39]
  TGI: 63.5 µM
[40]
  TGI: > 100 µM
[41]
  TGI: > 100 µM
[42]
  TGI: > 100 µM
[43]
  TGI: > 100 µM
[44]
  TGI: > 100 µM
[45]
  TGI: > 100 µM
[46]
  TGI: > 100 µM
[47]
  TGI: 63.4 µM
[48]
  TGI: 38.7 µM
[50]
  TGI: > 100 µM

## CC(=O)NNc1nc(C)c(C(/C=C/c2ccc3c(c2)OCO3)=N/NC(=O)c2ccncc2)s1
[1]
  TGI: > 100 µM
[2]
  TGI: > 100 µM
[3]
  TGI: > 100 µM
[4]
  TGI: > 100 µM
[5]
  TGI: > 100 µM
[6]
  TGI: > 100 µM
[7]
  TGI: > 100 µM
[8]
  TGI: > 100 µM
[9]
  TGI: > 100 µM
[10]
  TGI: > 100 µM
[51]
  TGI: > 100 µM
[12]
  TGI: > 100 µM
[52]
  TGI: > 100 µM
[53]
  TGI: > 100 µM
[13]
  TGI: > 100 µM
[14]
  TGI: > 100 µM
[15]
  TGI: > 100 µM
[16]
  TGI: > 100 µM
[17]
  TGI: > 100 µM
[18]
  TGI: > 100 µM
[19]
  TGI: > 100 µM
[20]
  TGI: > 100 µM
[21]
  TGI: > 100 µM
[22]
  TGI: > 100 µM
[23]
  TGI: > 100 µM
[24]
  TGI: > 100 µM
[25]
  TGI: > 100 µM
[26]
  TGI: > 100 µM
[27]
  TGI: > 100 µM
[58]
  TGI: > 100 µM
[28]
  TGI: > 100 µM
[29]
  TGI: > 100 µM
[54]
  TGI: > 100 µM
[30]
  TGI: > 100 µM
[59]
  TGI: > 100 µM
[31]
  TGI: > 100 µM
[32]
  TGI: > 100 µM
[33]
  TGI: > 100 µM
[34]
  TGI: > 100 µM
[35]
  TGI: > 100 µM
[55]
  TGI: > 100 µM
[36]
  TGI: > 100 µM
[56]
  TGI: > 100 µM
[37]
  TGI: > 100 µM
[57]
  TGI: > 100 µM
[38]
  TGI: > 100 µM
[39]
  TGI: > 100 µM
[40]
  TGI: > 100 µM
[41]
  TGI: > 100 µM
[42]
  TGI: > 100 µM
[43]
  TGI: > 100 µM
[45]
  TGI: > 100 µM
[46]
  TGI: > 100 µM
[47]
  TGI: > 100 µM
[48]
  TGI: > 100 µM
[49]
  TGI: > 100 µM
[50]
  TGI: > 100 µM

## CC1C2CC(CC2=O)C1(C)C (stereo not drawn)
[1]
  TGI: > 100 µM
[2]
  TGI: > 100 µM
[3]
  TGI: > 100 µM
[4]
  TGI: > 100 µM
[5]
  TGI: > 100 µM
[6]
  TGI: > 100 µM
[7]
  TGI: > 100 µM
[8]
  TGI: > 100 µM
[9]
  TGI: > 100 µM
[10]
  TGI: > 100 µM
[11]
  TGI: > 100 µM
[51]
  TGI: > 100 µM
[12]
  TGI: > 100 µM
[52]
  TGI: > 100 µM
[53]
  TGI: > 100 µM
[13]
  TGI: > 100 µM
[14]
  TGI: > 100 µM
[15]
  TGI: > 100 µM
[16]
  TGI: > 100 µM
[17]
  TGI: > 100 µM
[19]
  TGI: > 100 µM
[20]
  TGI: > 100 µM
[22]
  TGI: > 100 µM
[23]
  TGI: > 100 µM
[24]
  TGI: > 100 µM
[25]
  TGI: > 100 µM
[26]
  TGI: > 100 µM
[27]
  TGI: > 100 µM
[58]
  TGI: > 100 µM
[28]
  TGI: > 100 µM
[29]
  TGI: > 100 µM
[54]
  TGI: > 100 µM
[30]
  TGI: > 100 µM
[59]
  TGI: > 100 µM
[31]
  TGI: > 100 µM
[32]
  TGI: > 100 µM
[33]
  TGI: > 100 µM
[35]
  TGI: > 100 µM
[55]
  TGI: > 100 µM
[56]
  TGI: > 100 µM
[37]
  TGI: > 100 µM
[57]
  TGI: > 100 µM
[38]
  TGI: > 100 µM
[39]
  TGI: > 100 µM
[40]
  TGI: > 100 µM
[41]
  TGI: > 100 µM
[42]
  TGI: > 100 µM
[44]
  TGI: > 100 µM
[45]
  TGI: > 100 µM
[46]
  TGI: > 100 µM
[47]
  TGI: > 100 µM
[48]
  TGI: > 100 µM
[49]
  TGI: > 100 µM
[50]
  TGI: > 100 µM
